We go through five substances from patent US7091185B2, “Periodic antimicrobial peptides” (Dow Global Technologies Inc., priority 2003, dated 2006).

The subject of data set [1] is S. aureus (methicillin resistant) ATCC 33591. The method, then:
(§1) The bacteria tested were P. aeruginosa American Type Culture Collection Number (ATCC) 10145, E. coli ATCC 2592, and S. aureus (methicillin reseistant) ATTC 33591.
(§2) All experiments were compared to bacterial growth under optimal growth conditions (37° C., pH 7.0, absence of additional salt, growth media—referred to as standard growth conditions). In each plate, no growth control (media alone), positive growth control (bacteria with no test sample), positive antimicrobial controls (agents with known antimicrobial activity) and test compounds were tested.
(§3) The plates were incubated overnight, and the relative percent growth determined by optical density at 620 nm (OD620) using a […] […] PLUS™. […] All samples were tested in duplicate and each assay was repeated at least twice. […] IC50 and MIC are reported in μg/ml.

For data set [2], the system named is E. coli ATCC 2592. The conditions noted are these: ATCC 2592. The method, then:
as §1, §2, §3

Data set [3] relates to HeLa cell line. As to the kind of experiment: HeLa MTS cellular reduction toxicity assay. Format: cell-based. The conditions noted are these: for TX50: 24 h, MTS. As to the method:
The RBC protocol was from Blondelle (2000) and is described generally as follows: The toxicity toward the HeLa cell line was determined using a MTS (3-(4-5-dimethylthiazol-2-yl)-5-(3carboxymethoxyphenyl)-2-(4-sulfophenyl)-2H-tetrazolium, sodium salt) cellular reduction assay. MTS (2 mg/mL) was prepared in Dulbecco PBS (pH 7.35), filtered, aliquoted and stored at minus 20° C. In 96 well flat bottomed plates, cell suspensions (250 μL of 6×10^4 cell/mL in each well) were incubated for 48 h at 37° C. (5% CO2 incubator). The peptides (50 μL) were then added to the cell monolayer (following aspiration of the media from each well and addition of 50 μL of Dulbecco's Modified Eagles Medium) at varying concentrations derived from serial 2-fold dilutions, and the plates incubated for 24 h at 37° C. (5% CO2 incubator). Proliferation was then determined by adding a solution of phenazine methosulfate (PMS: 0.92 mg/mL in DPBS) to MTS at a 1:20 ration just prior to the assay. Twenty microliters MTS-PMS solution were added to each well and the plates incubated for 1 h at 37° C. (5% CO2 incubator). The relative percent toxicity was determined by comparing the absorbance at 490 nm of each peptide to the absorbance of cells without peptide. The TX50 (concentration required for 50% toxicity) was calculated using a sigmoidal curve fitting software (Graphpad Prism).
On the technique in general: Formazan colour is commonly taken as a measure of viable cells.

In data set [4] the test system is C. albicans 10231. The class given is cell-based. The conditions noted are these: 10231. The method, then: (§4) The MIC and IC50 values were determined by a broth microdilution method according to guidelines of the National Committee for Clinical Laboratory Standard as follows: In 96-well tissue culture plates, a fixed volume of bacterial suspension in 2× broth (as defined below) was added to the mixtures or individual compounds dispensed at concentrations varying from 1,000 to 1 μg/ml derived from serial two-fold dilutions in sterile water. The bacteria tested were P. aeruginosa American Type Culture Collection Number (ATCC) 10145, E. coli ATCC 2592, and S. aureus (methicillin reseistant) ATTC 33591.
(§5) The plates were incubated overnight, and the relative percent growth determined by optical density at 620 nm (OD620) using a TITERTEK MULTISKAN PLUS™. […] IC50 values were calculated using a sigmoidal curve fitting software program (GRAPHPAD,™ ISI Software,™ San Diego, Calif.). All samples were tested in duplicate and each assay was repeated at least twice. In the following table, KFAK is the repeat unit and multimers of KFAK were tested. IC50 and MIC are reported in μg/ml.
(§6) Because the antibacterial activity of the periodic peptides was so promising, further experiments were performed to determine if the periodic peptides also had antifungal activity. The experimental design was similar to that above, with accommodation made for fungal growth requirements, including the use of Sabouraud Dextrose Broth (SDB) and Sabouraud Dextrose Agar (SDA) slants.

For data set [5], the system named is Cr. Neoformans 32045. The class given is cell-based. The method, then:
as §4, §5, §6

The test system of data set [6] is Red blood cells (RBC). The experiment in a line: Red blood cell toxicity. Format: cell-based.
Data set [7] in a line: Red blood cell toxicity. Conditions: red blood cells (RBC). The class given is cell-based.
For data set [8], the system named is P. aeruginosa ATCC 10145. Conditions: ATCC 10145. The method, then: as §1, §2, §3
Where [9] appears, read: S. aureus (methicillin resistant) 33591, gram+.
Setting [10] is: RBCs, concentration required for 50% toxicity, read-out: TX50.

Usually IC50 stands for the midpoint of a concentration-inhibition curve. A lower IC50 goes with greater potency. The term MIC denotes the least concentration at which growth counts as inhibited. Higher therefore signals a need for much substance.

Read-outs that look alike come from different tables or passages of the source. Where no end group is shown, it is not given here.

As for “KFAKKFAKKFAKKFAKKFAK [KFAK (5), KFAK KFAK KFAK KFAK KFAK]”, the 50% inhibitory concentration (IC50) in data set [1] (setting [9]) is over 250 µg/mL; in data set [2] it was 6 µg/mL; in data set [4], 66 µg/mL; in data set [5] it was 5 µg/mL. For the same substance, the minimum inhibitory concentration (MIC) in data set [1] (setting [9]) was over 250 µg/mL; in data set [2], 16 to 32 µg/mL; in data set [4] it was 90 to 125 µg/mL; in data set [5], 8 to 16 µg/mL. For the same substance, the “% kill at 500 μg/ml” value in data set [3] is reported as 89%. In data set [3], the TX50 is over 500 µg/mL. In addition, the “% kill at 250 μg/ml” value in data set [6] (RBCs, 250 μg/ml) was 4.1%. Further, the HC50 at 24 h in data set [7] (setting [10]) is over 250 µg/mL.

As to “FKLRAKIKVRLRAKIKL [D4E1, FKLRAKIKVRLRAKIKL, reference compound]”, the IC50 in data set [1] (ATCC 33591) amounted to 6.3 µg/mL; in data set [8] it was 6.2 µg/mL; in data set [2], 3.3 µg/mL; in data set [4], 70.6 µg/mL; in data set [5], 1.8 µg/mL. The MIC in data set [1] (ATCC 33591) was in the range of 32 to 62 µg/mL; in data set [8], 8 to 16 µg/mL; in data set [2], 8 to 16 µg/mL; in data set [4], 80 to 125 µg/mL; in data set [5], 8 to 16 µg/mL. Besides, the “% kill at 250 μg/ml” value in data set [6] came to 77.2%. For the same substance, in data set [7] (setting [10]), the HC50 at 24 h was found to be 134 µg/mL.

With “KFAKKFAKKFAKKFAKKFAKKFAKKFAK [KFAK (7), KFAK KFAK KFAK KFAK KFAK KFAK KFAK]”, the results for the IC50 in data set [1] (ATCC 33591), in data set [2] and in data set [4] were 108.8 µg/mL, 8 µg/mL and 82 µg/mL, respectively. For the same substance, the MIC in data set [1] (ATCC 33591) was over 250 µg/mL; in data set [2] it was 32 to 62 µg/mL; in data set [4], 100 to 125 µg/mL; in data set [5] it was 32 to 62 µg/mL. Further, in data set [3], the “% kill at 500 μg/ml” value was 13.0%. The TX50 in data set [3] is 204.1 µg/mL; in data set [6], over 250 µg/mL. Besides, the “% kill at 250 μg/ml” value in data set [6] stood at 13.7%. The HC50 at 24 h in data set [7] was over 250 µg/mL.

In the case of “KFAKKFAKKFAKKFAK [KFAK (4), KFAK KFAK KFAK KFAK]”, the IC50 in data set [1] (setting [9]) is over 250 µg/mL; in data set [2], 46 µg/mL; in data set [4], 70 µg/mL; in data set [5] it was 5.3 µg/mL. The minimal inhibitory concentration (MIC) was over 250 µg/mL in data set [1] (setting [9]), 62 to 125 µg/mL in data set [2], 90 to 125 µg/mL in data set [4] and 6.0 to 8.0 µg/mL in data set [5]. Also, the “% kill at 500 μg/ml” value in data set [3] is recorded as 76%. The substance also displayed a TX50 in data set [3] of over 500 µg/mL. The “% kill at 250 μg/ml” value in data set [6] (RBCs, 250 μg/ml) came out at 0.1%. For the same substance, the HC50 at 24 h in data set [7] (setting [10]) is over 250 µg/mL.

Regarding “H-KFAKKFAKKFAKKFAKKFAKKFAK-OH [KFAK (6), KFAK KFAK KFAK KFAK KFAK KFAK]”, the IC50 in data set [1] (ATCC 33591) is 38.7 µg/mL; in data set [8] it was 5.6 µg/mL; in data set [2] it was 4 µg/mL; in data set [4], 72 µg/mL; in data set [5] it was 5.8 µg/mL. Also, the minimal inhibitory concentration (MIC) in data set [1] (ATCC 33591) lay within 125 to 250 µg/mL; in data set [2] it was 8 to 16 µg/mL; in data set [4], 80 to 125 µg/mL; in data set [5], 16 to 32 µg/mL. Also, in data set [3], the “% kill at 500 μg/ml” value is on record as 30.5%. Besides, the TX50 in data set [3] amounted to 457.3 µg/mL. For the same substance, the “% kill at 250 μg/ml” value in data set [6] worked out at 7.3%. In addition, in data set [7], the HC50 at 24 h was over 250 µg/mL.
